Source: ChEMBL document CHEMBL4477264, “Amino acid amides of piperic acid (PA) and 4-ethylpiperic acid (EPA) as NorA efflux pump inhibitors of Staphylococcus aureus” (2016)
The source made the active and inactive calls. The rule behind the calls is not given here.

Legend:
[1] = system: Staphylococcus aureus; experiment: Antibacterial activity against wild-type Staphylococcus aureus 1199 expressing NorA efflux pump measured at every 3 mins interval for 30 mins by fluorescence analysis; type: functional
[2] = molecular target: T1, Quinolone resistance protein NorA (Staphylococcus aureus) (UniProt P0A0J7); experiment: Inhibition of NorA efflux pump overexpressed in Staphylococcus aureus 1199B assessed as fold reduction in ciprofloxacin MIC at 12.5 ug/ml measured after 24 hrs by broth checkerboard method
T1 sequence (whole entry): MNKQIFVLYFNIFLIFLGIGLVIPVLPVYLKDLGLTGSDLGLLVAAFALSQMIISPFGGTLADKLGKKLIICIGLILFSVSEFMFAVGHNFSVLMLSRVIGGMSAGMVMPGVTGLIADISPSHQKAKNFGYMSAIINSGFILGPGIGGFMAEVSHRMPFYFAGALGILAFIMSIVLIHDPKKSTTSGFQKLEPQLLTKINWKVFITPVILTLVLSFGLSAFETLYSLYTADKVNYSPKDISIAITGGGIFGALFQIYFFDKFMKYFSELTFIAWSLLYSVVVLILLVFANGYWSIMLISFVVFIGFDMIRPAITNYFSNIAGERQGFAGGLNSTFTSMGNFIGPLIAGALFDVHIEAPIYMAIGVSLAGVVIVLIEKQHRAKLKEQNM

[3] = molecular target: T1, Quinolone resistance protein NorA (Staphylococcus aureus); experiment: Inhibition of NorA efflux pump overexpressed in Staphylococcus aureus 1199B assessed as concentration required for four-fold reduction in ethidium bromide MIC measured at every 3 mins interval for 30 mins by fluorescence analysis
[4] = system: Staphylococcus aureus; experiment: Antibacterial activity against Staphylococcus aureus 1199B overexpressing NorA efflux pump measured at every 3 mins interval for 30 mins by fluorescence analysis; type: functional
[5] = system: Staphylococcus aureus; experiment: Antibacterial activity against Staphylococcus aureus 1199B overexpressing NorA efflux pump measured after 24 hrs by broth checkerboard method; type: functional
[6] = molecular target: T1, Quinolone resistance protein NorA (Staphylococcus aureus); experiment: Inhibition of NorA efflux pump in Staphylococcus aureus 1199 assessed as fold reduction in ethidium bromide MIC at […] measured at every 3 mins interval for 30 mins by fluorescence analysis; conditions: 12.5 ug/ml
[7] = molecular target: T1, Quinolone resistance protein NorA (Staphylococcus aureus); experiment: Inhibition of NorA efflux pump overexpressed in Staphylococcus aureus 1199B assessed as concentration required for four-fold reduction in ciprofloxacin MIC measured after 24 hrs by broth checkerboard method relative to control
[8] = molecular target: T1, Quinolone resistance protein NorA (Staphylococcus aureus); experiment: Inhibition of NorA efflux pump overexpressed in Staphylococcus aureus 1199B assessed as fold reduction in ethidium bromide MIC at 12.5 ug/ml measured at every 3 mins interval for 30 mins by fluorescence analysis
[9] = molecular target: T1, Quinolone resistance protein NorA (Staphylococcus aureus); experiment: Inhibition of NorA efflux pump in Staphylococcus aureus 1199 assessed as concentration required for four-fold reduction in ethidium bromide MIC measured at every 3 mins interval for 30 mins by fluorescence analysis
[10] = molecular target: T1, Quinolone resistance protein NorA (Staphylococcus aureus); experiment: Inhibition of NorA efflux pump overexpressed in Staphylococcus aureus 1199B assessed as reduction in EtBr efflux measured over 30 mins by fluorescence analysis
[11] = molecular target: T1, Quinolone resistance protein NorA (Staphylococcus aureus); experiment: Inhibition of NorA efflux pump overexpressed in Staphylococcus aureus 1199B assessed as increase in EtBr accumulation at 50 ug/ml measured after 30 mins by fluorescence analysis
[12] = molecular target: T1, Quinolone resistance protein NorA (Staphylococcus aureus); experiment: Potency index, ratio of SK-20 MEC to compound MEC for Staphylococcus aureus 1199B overexpressing NorA efflux pump assessed as concentration required for four-fold reduction in ciprofloxacin MIC

Row | Compound | MIC [1] | fold change (FC) [2] | MEC [3] | MIC [4] | MIC [5] | fold change (FC) [6] | MEC [7] | fold change (FC) [8] | MEC [9] | inhibition [10] | inhibition [11] | Ratio [12]
1 | COC(=O)[C@@H](NC(=O)/C=C/C=C/c1ccc2c(c1)OCO2)C(C)(C)C | > 50 µg/mL | 4 | 50 µg/mL | > 50 µg/mL | > 50 µg/mL | 0 | 12.5 µg/mL | 2 | 50 µg/mL | – | – | –
2 | CCC1CCC(CC(=O)OC)(NC(=O)/C=C/C=C/c2ccc3c(c2)OCO3)CC1 (stereo unspecified) | – | 0 | – | – | > 50 µg/mL | – | 50 µg/mL | – | – | – | – | –
3 | CCC(/C=C/C(=O)NC1(CC(=O)OC)CCC(C(C)(C)C)CC1)=C\c1ccc2c(c1)OCO2 (stereo unspecified) | – | 0 | – | – | > 50 µg/mL | – | > 50 µg/mL | – | – | – | – | –
4 | CCC(/C=C/C(=O)N[C@@H](Cc1ccccc1)C(=O)OC)=C\c1ccc2c(c1)OCO2 | > 50 µg/mL | 2 | 6.25 µg/mL | > 50 µg/mL | > 50 µg/mL | 2 | 25 µg/mL | 4 | > 50 µg/mL | – | – | –
5 | CCCCC(=O)NC1(CC(=O)NNc2ccccc2)CCN(C(=O)/C=C/C(=C/c2ccc3c(c2)OCO3)CC)CC1 | > 50 µg/mL | 4 | 3.12 µg/mL | > 50 µg/mL | > 50 µg/mL | 4 | 6.25 µg/mL | 8 | 12.5 µg/mL | Dose-dependent effect | Active | –
6 | CCC(/C=C/C(=O)N[C@@H](Cc1c[nH]c2ccccc12)C(=O)OC)=C\c1ccc2c(c1)OCO2 | > 50 µg/mL | – | – | – | – | – | – | – | – | – | – | –
7 | COC(=O)CC1(NC(=O)/C=C/C=C/c2ccc3c(c2)OCO3)CCC(C(C)(C)C)CC1 (stereo unspecified) | – | 0 | – | – | > 50 µg/mL | – | > 50 µg/mL | – | – | – | – | –
8 | CCC(/C=C/C(=O)NCC1(CC(=O)OC)CCCCC1)=C\c1ccc2c(c1)OCO2 | – | 2 | – | – | > 50 µg/mL | – | 25 µg/mL | – | – | – | – | –
9 | CCC(/C=C/C(=O)N1CCC[C@@H]1C(=O)OC)=C\c1ccc2c(c1)OCO2 | > 50 µg/mL | 16 | 3.12 µg/mL | > 50 µg/mL | > 50 µg/mL | 2 | 3.12 µg/mL | 4 | 25 µg/mL | Dose-dependent effect | Active | 4
10 | O=C(O)/C=C/C=C/c1ccc2c(c1)OCO2 [PIPERIC ACID] | – | 0 | – | – | > 50 µg/mL | – | > 50 µg/mL | – | – | – | – | –
11 | O=C(/C=C/C=C/c1ccc2c(c1)OCO2)N1CCCCC1 [PIPERINE] | > 50 µg/mL | 0 | – | > 50 µg/mL | > 50 µg/mL | 0 | > 50 µg/mL | 2 | > 50 µg/mL | – | – | –
12 | COC(=O)CC1(NC(=O)/C=C/C=C/c2ccc3c(c2)OCO3)CCCCC1 | – | 0 | – | – | > 50 µg/mL | – | > 50 µg/mL | – | – | – | – | –
13 | CCC(/C=C/C(=O)N[C@H](C(=O)OC)C(C)C)=C\c1ccc2c(c1)OCO2 | – | 0 | – | – | > 50 µg/mL | – | > 50 µg/mL | – | – | – | – | –
14 | CCC(/C=C/C(=O)N[C@@H](CC(C)C)C(=O)OC)=C\c1ccc2c(c1)OCO2 | – | 0 | – | – | > 50 µg/mL | – | > 50 µg/mL | – | – | – | – | –
15 | COC(=O)CC1(CNC(=O)/C=C/C=C/c2ccc3c(c2)OCO3)CCCCC1 | > 50 µg/mL | 4 | 50 µg/mL | > 50 µg/mL | > 50 µg/mL | 0 | 12.5 µg/mL | 2 | 25 µg/mL | – | – | –
16 | CCC(/C=C/C(=O)N1CCC(CC(=O)NC(C)(C)C(=O)OC)(NC(C)=O)CC1)=C\c1ccc2c(c1)OCO2 | – | 2 | – | – | > 50 µg/mL | – | 25 µg/mL | – | – | – | – | –
17 | CCC(/C=C/C(=O)O)=C\c1ccc2c(c1)OCO2 | – | 0 | – | – | > 50 µg/mL | – | > 50 µg/mL | – | – | – | – | –
18 | CCC(/C=C/C(=O)N[C@@H](C)C(=O)OC)=C\c1ccc2c(c1)OCO2 | – | 0 | – | – | > 50 µg/mL | – | > 50 µg/mL | – | – | – | – | –
19 | CCC(/C=C/C(=O)N[C@H](C(=O)OC)C(C)(C)C)=C\c1ccc2c(c1)OCO2 | > 50 µg/mL | 4 | 25 µg/mL | > 50 µg/mL | > 50 µg/mL | 2 | 12.5 µg/mL | 2 | > 50 µg/mL | – | – | –
20 | CCC(/C=C/C(=O)NC1(CC(=O)OC)CCC(CC)CC1)=C\c1ccc2c(c1)OCO2 (stereo unspecified) | – | 0 | – | – | > 50 µg/mL | – | > 50 µg/mL | – | – | – | – | –
21 | CCC(/C=C/C(=O)N1CCCCC1)=C\c1ccc2c(c1)OCO2 | > 50 µg/mL | 4 | 12.5 µg/mL | > 50 µg/mL | > 50 µg/mL | 0 | 12.5 µg/mL | 4 | 25 µg/mL | – | – | –
22 | CCC(/C=C/C(=O)NC1(CC(=O)OC)CCCCC1)=C\c1ccc2c(c1)OCO2 | – | 2 | – | – | > 50 µg/mL | – | 50 µg/mL | – | – | – | – | –
